According to ChEMBL document CHEMBL4346705, “(±)-trans-Dihydronarciclasine and (±)-trans-dihydrolycoricidine analogues modified in their ring A: Evaluation of their anticancer activity and a SAR study” (2019):

Key:
Assay type in all cases: functional
HOP-92 = test: Antiproliferative activity against human HOP92 cells assessed as cell viability at 10^-5 M incubated for 48 hrs by sulforhodamine B assay relative to control; settings: HOP-92, 48 h, read-out: Activity
PC-3 = test: Antiproliferative activity against human PC3 cells assessed as cell viability at 10^-5 M incubated for 48 hrs by sulforhodamine B assay relative to control; settings: PC-3, 48 h, read-out: Activity
ACHN = test: Antiproliferative activity against human ACHN cells assessed as cell viability at 10^-5 M incubated for 48 hrs by sulforhodamine B assay relative to control; settings: read-out: Activity
SNB-75 = test: Antiproliferative activity against human SNB75 cells assessed as cell viability at 10^-5 M incubated for 48 hrs by sulforhodamine B assay relative to control; settings: SNB-75, 48 h, read-out: Activity
SN12C = test: Antiproliferative activity against human SN12C cells assessed as cell viability at 10^-5 M incubated for 48 hrs by sulforhodamine B assay relative to control; settings: read-out: Activity
SK-MEL-5 = test: Antiproliferative activity against human SK-MEL-5 cells assessed as cell viability at 10^-5 M incubated for 48 hrs by sulforhodamine B assay relative to control; settings: SK-MEL-5, 48 h, read-out: Activity
Hs-578T = test: Antiproliferative activity against human Hs 578T cells assessed as cell viability at 10^-5 M incubated for 48 hrs by sulforhodamine B assay relative to control; settings: read-out: Activity
NCI-H322M = test: Antiproliferative activity against human NCI-H322M cells assessed as cell viability at 10^-5 M incubated for 48 hrs by sulforhodamine B assay relative to control; settings: read-out: Activity
RXF 393 = test: Antiproliferative activity against human RXF393 cells assessed as cell viability at 10^-5 M incubated for 48 hrs by sulforhodamine B assay relative to control; settings: RXF 393, 48 h, read-out: Activity
SF-539 = test: Antiproliferative activity against human SF539 cells assessed as cell viability at 10^-5 M incubated for 48 hrs by sulforhodamine B assay relative to control; settings: SF-539, 48 h, read-out: Activity
SF-295 = test: Antiproliferative activity against human SF295 cells assessed as cell viability at 10^-5 M incubated for 48 hrs by sulforhodamine B assay relative to control; settings: SF-295, 48 h, read-out: Activity
MCF7 = test: Antiproliferative activity against human MCF7 cells assessed as cell viability at 10^-5 M incubated for 48 hrs by sulforhodamine B assay relative to control; settings: MCF7, 48 h, read-out: Activity
OVCAR-5 = test: Antiproliferative activity against human OVCAR5 cells assessed as cell viability at 10^-5 M incubated for 48 hrs by sulforhodamine B assay relative to control; settings: OVCAR-5, 48 h, read-out: Activity
SW-620 = test: Antiproliferative activity against human SW620 cells assessed as cell viability at 10^-5 M incubated for 48 hrs by sulforhodamine B assay relative to control; settings: SW-620, 48 h, read-out: Activity
LOX IMVI = test: Antiproliferative activity against human LOXIMVI cells assessed as cell viability at 10^-5 M incubated for 48 hrs by sulforhodamine B assay relative to control; settings: read-out: Activity
MDA-MB-435 = test: Antiproliferative activity against human MDA-MB-435 cells assessed as cell viability at 10^-5 M incubated for 48 hrs by sulforhodamine B assay relative to control; settings: MDA-MB-435, 48 h, read-out: Activity
T47D = test: Antiproliferative activity against human T47D cells assessed as cell viability at 10^-5 M incubated for 48 hrs by sulforhodamine B assay relative to control; settings: read-out: Activity
K562 = test: Antiproliferative activity against human K562 cells assessed as cell viability at 10^-5 M incubated for 48 hrs by sulforhodamine B assay relative to control; settings: K562, 48 h, read-out: Activity
OVCAR-3 = test: Antiproliferative activity against human OVCAR3 cells assessed as cell viability at 10^-5 M incubated for 48 hrs by sulforhodamine B assay relative to control; settings: OVCAR-3, 48 h, read-out: Activity
SK-OV-3 = test: Antiproliferative activity against human SKOV3 cells assessed as cell viability at 10^-5 M incubated for 48 hrs by sulforhodamine B assay relative to control; settings: SK-OV-3, 48 h, read-out: Activity
HT-29 = test: Antiproliferative activity against human HT-29 cells assessed as cell viability at 10^-5 M incubated for 48 hrs by sulforhodamine B assay relative to control; settings: HT-29, 48 h, read-out: Activity
TK-10 = test: Antiproliferative activity against human TK10 cells assessed as cell viability at 10^-5 M incubated for 48 hrs by sulforhodamine B assay relative to control; settings: TK-10, 48 h, read-out: Activity
M14 = test: Antiproliferative activity against human M14 cells assessed as cell viability at 10^-5 M incubated for 48 hrs by sulforhodamine B assay relative to control; settings: M14, 48 h, read-out: Activity
COLO 205 = test: Antiproliferative activity against human COLO205 cells assessed as cell viability at 10^-5 M incubated for 48 hrs by sulforhodamine B assay relative to control; settings: COLO 205, 48 h, read-out: Activity
HCC 2998 = test: Antiproliferative activity against human HCC2998 cells assessed as cell viability at 10^-5 M incubated for 48 hrs by sulforhodamine B assay relative to control; settings: HCC 2998, 48 h, read-out: Activity
A498 = test: Antiproliferative activity against human A498 cells assessed as cell viability at 10^-5 M incubated for 48 hrs by sulforhodamine B assay relative to control; settings: A498, 48 h, read-out: Activity
OVCAR-4 = test: Antiproliferative activity against human OVCAR4 cells assessed as cell viability at 10^-5 M incubated for 48 hrs by sulforhodamine B assay relative to control; settings: OVCAR-4, 48 h, read-out: Activity
CAKI-1 = test: Antiproliferative activity against human Caki1 cells assessed as cell viability at 10^-5 M incubated for 48 hrs by sulforhodamine B assay relative to control; settings: CAKI-1, 48 h, read-out: Activity
UO-31 = test: Antiproliferative activity against human UO31 cells assessed as cell viability at 10^-5 M incubated for 48 hrs by sulforhodamine B assay relative to control; settings: UO-31, 48 h, read-out: Activity
MOLT-4 = test: Antiproliferative activity against human MOLT4 cells assessed as cell viability at 10^-5 M incubated for 48 hrs by sulforhodamine B assay relative to control; settings: MOLT-4, 48 h, read-out: Activity
NCI/ADR-RES = test: Antiproliferative activity against human NCI-ADR-RES cells assessed as cell viability at 10^-5 M incubated for 48 hrs by sulforhodamine B assay relative to control; settings: read-out: Activity
SK-MEL-2 = test: Antiproliferative activity against human SK-MEL-2 cells assessed as cell viability at 10^-5 M incubated for 48 hrs by sulforhodamine B assay relative to control; settings: SK-MEL-2, 48 h, read-out: Activity

Compound | viability at 10 µM (HOP-92) [%] | viability at 10 µM (PC-3) [%] | viability at 10 µM (ACHN) [%] | viability at 10 µM (SNB-75) [%] | viability at 10 µM (SN12C) [%] | viability at 10 µM (SK-MEL-5) [%] | viability at 10 µM (Hs-578T) [%] | viability at 10 µM (NCI-H322M) [%] | viability at 10 µM (RXF 393) [%] | viability at 10 µM (SF-539) [%] | viability at 10 µM (SF-295) [%] | viability at 10 µM (MCF7) [%] | viability at 10 µM (OVCAR-5) [%] | viability at 10 µM (SW-620) [%] | viability at 10 µM (LOX IMVI) [%] | viability at 10 µM (MDA-MB-435) [%] | viability at 10 µM (T47D) [%] | viability at 10 µM (K562) [%] | viability at 10 µM (OVCAR-3) [%] | viability at 10 µM (SK-OV-3) [%] | also measured
CCOc1c(OC)cc2c(c1OCC)C(=O)NC1C2CC(O)C(O)C1O (racemic) | 84 | 93.3 | 104 | 92.4 | 101 | 99.8 | 99.3 | 98.6 | 104 | 106 | 98.7 | 95.2 | 108 | 106 | 97.6 | 105 | 106 | 91.8 | 103 | 105 | viability at 10 µM (HT-29): 99.6%; viability at 10 µM (TK-10): 97.1%; viability at 10 µM (M14): 99.1%; viability at 10 µM (COLO 205): 113%; viability at 10 µM (HCC 2998): 104%; viability at 10 µM (A498): 110%; viability at 10 µM (OVCAR-4): 103%; viability at 10 µM (CAKI-1): 85.2%; viability at 10 µM (UO-31): 81.8%; viability at 10 µM (MOLT-4): 80.9%; viability at 10 µM (NCI/ADR-RES): 109%; viability at 10 µM (SK-MEL-2): 103%
CCOc1cc2c(c(O)c1OCC)C(=O)NC1C2CC(O)C(O)C1O (racemic) | 78.5 | 100 | 106 | 93.4 | 103 | 102 | 89.9 | 97.6 | 104 | 102 | 98.7 | 90.9 | 104 | 112 | 98.5 | 109 | 90.4 | 93.8 | 104 | 98.6 | viability at 10 µM (HT-29): 99.7%; viability at 10 µM (TK-10): 99.1%; viability at 10 µM (M14): 100%; viability at 10 µM (COLO 205): 110%; viability at 10 µM (HCC 2998): 101%; viability at 10 µM (A498): 98.7%; viability at 10 µM (OVCAR-4): 103%; viability at 10 µM (CAKI-1): 95.7%; viability at 10 µM (UO-31): 89.4%; viability at 10 µM (MOLT-4): 103%; viability at 10 µM (NCI/ADR-RES): 107%; viability at 10 µM (SK-MEL-2): 109%
O=C1NC2C(CC(O)C(O)C2O)c2cc3c(cc21)OCCO3 (racemic) | 101 | 103 | 105 | 98.3 | 105 | 102 | 96.9 | 104 | 116 | 101 | 101 | 98.6 | 107 | 104 | 97.8 | 107 | 104 | 104 | 111 | 103 | viability at 10 µM (HT-29): 105%; viability at 10 µM (TK-10): 103%; viability at 10 µM (M14): 98.9%; viability at 10 µM (COLO 205): 111%; viability at 10 µM (HCC 2998): 109%; viability at 10 µM (A498): 108%; viability at 10 µM (OVCAR-4): 107%; viability at 10 µM (CAKI-1): 94.4%; viability at 10 µM (UO-31): 93.2%; viability at 10 µM (MOLT-4): 103%; viability at 10 µM (NCI/ADR-RES): 107%; viability at 10 µM (SK-MEL-2): 109%
CCOc1cc2c(c(OC)c1OCC)C(=O)NC1C2CC(O)C(O)C1O (racemic) | 86.4 | 96.9 | 104 | 98.8 | 104 | 102 | 99.8 | 106 | 105 | 102 | 102 | 97.6 | 109 | 109 | 98.4 | 107 | 96.3 | 98.3 | 102 | 103 | viability at 10 µM (HT-29): 98.3%; viability at 10 µM (TK-10): 100%; viability at 10 µM (M14): 107%; viability at 10 µM (COLO 205): 116%; viability at 10 µM (HCC 2998): 107%; viability at 10 µM (A498): 102%; viability at 10 µM (OVCAR-4): 105%; viability at 10 µM (CAKI-1): 90.1%; viability at 10 µM (UO-31): 96.1%; viability at 10 µM (MOLT-4): 99.3%; viability at 10 µM (NCI/ADR-RES): 105%; viability at 10 µM (SK-MEL-2): 110%
